Experimental data taken from publication PMC8752738, “A propolis-derived small molecule ameliorates metabolic syndrome in obese mice by targeting the CREB/CRTC2 transcriptional complex” (Nature Communications, 2022).
“And” between values parts separate entries of the source, which are not always exact repeats. Equal values may be shown once. “Also recorded” adds a separate entry of the source.

What was measured:
[1] = molecular target: T1, GST-CREB / HA-P300 interaction (Homo sapiens, UniProt P16220); assay: GST-CREB pull-down of HA-P300 from HEK293T lysate; format: biochemical; settings: APC 10 μM
T1 construct: made in house; host or cells: GST-CREB beads (pGEX5X-1); HA-P300 expressed in HEK293T cells
Procedure: 1 Supplementary Figure 2.
2 a) Immunoblot of HA-P300 recovered from HEK293T cell lysate using GST-CREB beads. APC
3 (10 μM) was incubated with cells for 1-h before FKS (10 nM) stimulation and was included in the
4 following pull-down mixtures (n=3). One of two independent experiments presented here.
5 b) Immunoblot for recovered GFP-CRTC1 or (c) GFP-CRTC3 immunoprecipitated by MYC-CREB
6 from overexpression HEK293T cell line. APC (10 μM) was incubated with cells for 1-h before FKS
7 (10 nM) stimulation and was included in the following pull-down mixtures. One of two independent
8 experiments presented here.
9 d) SPR sonogram traces of APC binding with HIS-CREB proteins immobilized to NTA-chip. The
10 concentration series of APC was as indicated.
11 e) SPR sonogram traces of APC flowing through HIS-CRTC2-S171A proteins immobilized on
12 NTA-chip. The concentration of APC was as indicated.
13 f) The luciferase enzymatic activity of HEK293T incubated with APC. Cells over-expressed
14 luciferase CRE-Luc reporter and were stimulated by FSK (10 nM) for 5-h before lysis, which was
15 then incubated with APC (concentration indicated) for 30 min before luciferase activity determination
16 (n=3 per treatment). Data are represented as mean ± SEM. *, p < 0.05; **, p < 0.01; p values were
17 determined by one-way ANOVA followed Dunnett’s multiple comparisons test. […]

[2] = molecular target: T2, CREB-KID / CBP-KIX interaction (Homo sapiens, UniProt P16220); assay: Two-hybrid assay BD-CREB-KID / AD-CBP-KIX; format: cell-based; settings: HEK293T, 10 μM, 8-h
T2 construct: CBP-KIX and CREB-KID domains as determined by two-hybrid assay; expressed in transfected cells; host or cells: HEK293T

[3] = molecular target: T3, luciferase (Photinus pyralis, UniProt P08659); assay: Luciferase enzymatic assay; format: biochemical; settings: lysate of HEK293T cells expressing CRE-Luc, 30 min
T3 construct: expressed in transfected cells; host or cells: HEK293T (lysate incubated with compound)
Procedure: HEK293T cells (4 × 10^5 per well of 24-well-plate) were transfected with plasmids expressing CRE-luciferase reporter (50 ng) together with RSV-β-gal (20 ng) by PEI-media overnight and induced by FSK (forskolin 10 nM) for 6-h. The cells were then collected in the lysis buffer (25 mM Gly-gly, 15 mM MgSO4, 4 mM EGTA, 1% V/V Triton X-100, 1 mM DTT, pH 7.8), mixed with an equal volume of luciferase substrate buffer (25 mM Gly-gly, 15 mM MgSO4, 4 mM EGTA, 250 mM potassium phosphate, 2.5 mM ATP, 2 mM DTT, 5 mg/mL luciferin, pH 7.8), and subjected to EnVision Multimode Plate Reader (Perkin/Elmer) to determine generated fluorescent signals.
13 d) Luciferase enzyme activity. The luciferase enzymatic activity from HEK293T cells incubated
The cells ectopically expressed luciferase (CRE-Luc) and were stimulated with FSK (10
15 nM) for 5 h before lysis, and then incubated with various concentrations of propolis for 30 min before
16 luciferase activity determination. One of two independent experiments presented here. Data are
17 represented as mean ± SEM (n=3 per treatment). ns, p > 0.05; *, p < 0.05; **, p < 0.01; p values were
18 determined by one-way ANOVA followed Dunnett’s multiple comparisons test.
13 f) The luciferase enzymatic activity of HEK293T incubated with APC. Cells over-expressed […]

[4] = Cholesterol, TG, NEFA and glycerol in serum and liver; format: in vivo, mouse; design: liver NEFA, Mean 2 (group mean) / Plasma VLDL cholesterol in db/db mice (VLDL-C) / Plasma VLDL cholesterol in db/db mice, group mean / TC in liver_CT2KO (total cholesterol in the liver of CRTC2-KO) / TC in liver_WT (total cholesterol in the liver) / TC in liver_WT, mean / TC in liver_WT, Mean Diff. VEH vs. drug / TC in liver_CRTC2KO, mean / TC in liver_CRTC2KO, Mean Diff. VEH vs. drug: unit not given here; settings: for plasma NEFA, Mean 2 (group mean): vs 0mg/kg mean 1.02; for liver glycerol/protein: Figure 5i; for hepatic NEFA / liver NEFA, Mean 2 (group mean): Figure 5h; for liver NEFA, Mean 2 (group mean): vs 0mg/kg mean 165.9; for Plasma total cholesterol, Mean 1 (drug group): N 6; for HF, plasma TG / HF, plasma TG, group mean / HF, plasma TG (Fast, TG): HF mice; for HF, plasma TG, group mean: n=6; for HF, plasma TG (Fast, TG): fasted
Procedure: Serum total cholesterol (TC), LDL cholesterol (LDL-C), and HDL cholesterol (HDL-C) levels were detected using commercial kits (Beihua, China), and serum VLDL protein was determined by ELISA (Jiancheng, China).
The plasma TG and NEFA levels were determined using corresponding kits from Beihua (China) and WAKO (Japan), respectively. The TG levels of liver and WAT were tested by TG kit (Applygene, China). The NEFA in the liver and WAT were extracted by chloroform–methanol and then subjected to NEFA assay (WAKO).

[5] = APC 10 mg/kg, individual animals
[6] = APC 20 mg/kg, individual animals
[7] = APC-10mg/kg, individual mice, 10 mg/kg
[8] = APC-20mg/kg, individual mice, 20 mg/kg
[9] = HF mice plasma, APC 10 mg/kg, N=5
[10] = HF mice plasma, APC 10 mg/kg, individual animals
[11] = HF mice plasma, APC 20 mg/kg, N=5
[12] = HF mice plasma, APC 20 mg/kg, individual animals
[13] = db/db mice, plasma, individual animals

T2 sequence (P16220 87-146 limits assumed): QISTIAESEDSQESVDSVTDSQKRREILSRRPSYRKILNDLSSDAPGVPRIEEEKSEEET
T3 sequence (P08659 whole entry): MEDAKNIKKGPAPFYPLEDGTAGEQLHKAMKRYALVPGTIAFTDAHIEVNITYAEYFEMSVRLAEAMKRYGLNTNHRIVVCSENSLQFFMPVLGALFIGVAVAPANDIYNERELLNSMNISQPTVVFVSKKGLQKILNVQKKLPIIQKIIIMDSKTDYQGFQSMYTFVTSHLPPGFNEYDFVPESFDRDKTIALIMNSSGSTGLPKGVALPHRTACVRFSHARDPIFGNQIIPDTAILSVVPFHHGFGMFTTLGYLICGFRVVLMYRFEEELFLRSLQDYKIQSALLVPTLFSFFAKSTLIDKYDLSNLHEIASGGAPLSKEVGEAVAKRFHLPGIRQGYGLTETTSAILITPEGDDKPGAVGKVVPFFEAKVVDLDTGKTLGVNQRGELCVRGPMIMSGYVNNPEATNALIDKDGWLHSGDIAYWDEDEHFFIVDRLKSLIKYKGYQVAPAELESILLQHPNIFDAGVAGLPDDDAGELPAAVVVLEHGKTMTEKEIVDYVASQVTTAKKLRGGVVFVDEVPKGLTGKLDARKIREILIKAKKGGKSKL
T1 sequence (P16220 whole entry): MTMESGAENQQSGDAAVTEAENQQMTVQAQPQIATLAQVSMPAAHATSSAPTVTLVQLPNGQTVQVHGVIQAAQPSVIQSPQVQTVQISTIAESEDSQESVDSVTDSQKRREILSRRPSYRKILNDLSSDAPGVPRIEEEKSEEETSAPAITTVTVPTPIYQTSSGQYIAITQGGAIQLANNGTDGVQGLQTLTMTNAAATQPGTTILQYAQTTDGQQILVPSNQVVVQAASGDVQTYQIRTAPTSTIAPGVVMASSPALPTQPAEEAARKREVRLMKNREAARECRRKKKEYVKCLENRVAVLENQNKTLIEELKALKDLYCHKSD
T1 sequence (B2RWS6 whole entry partner): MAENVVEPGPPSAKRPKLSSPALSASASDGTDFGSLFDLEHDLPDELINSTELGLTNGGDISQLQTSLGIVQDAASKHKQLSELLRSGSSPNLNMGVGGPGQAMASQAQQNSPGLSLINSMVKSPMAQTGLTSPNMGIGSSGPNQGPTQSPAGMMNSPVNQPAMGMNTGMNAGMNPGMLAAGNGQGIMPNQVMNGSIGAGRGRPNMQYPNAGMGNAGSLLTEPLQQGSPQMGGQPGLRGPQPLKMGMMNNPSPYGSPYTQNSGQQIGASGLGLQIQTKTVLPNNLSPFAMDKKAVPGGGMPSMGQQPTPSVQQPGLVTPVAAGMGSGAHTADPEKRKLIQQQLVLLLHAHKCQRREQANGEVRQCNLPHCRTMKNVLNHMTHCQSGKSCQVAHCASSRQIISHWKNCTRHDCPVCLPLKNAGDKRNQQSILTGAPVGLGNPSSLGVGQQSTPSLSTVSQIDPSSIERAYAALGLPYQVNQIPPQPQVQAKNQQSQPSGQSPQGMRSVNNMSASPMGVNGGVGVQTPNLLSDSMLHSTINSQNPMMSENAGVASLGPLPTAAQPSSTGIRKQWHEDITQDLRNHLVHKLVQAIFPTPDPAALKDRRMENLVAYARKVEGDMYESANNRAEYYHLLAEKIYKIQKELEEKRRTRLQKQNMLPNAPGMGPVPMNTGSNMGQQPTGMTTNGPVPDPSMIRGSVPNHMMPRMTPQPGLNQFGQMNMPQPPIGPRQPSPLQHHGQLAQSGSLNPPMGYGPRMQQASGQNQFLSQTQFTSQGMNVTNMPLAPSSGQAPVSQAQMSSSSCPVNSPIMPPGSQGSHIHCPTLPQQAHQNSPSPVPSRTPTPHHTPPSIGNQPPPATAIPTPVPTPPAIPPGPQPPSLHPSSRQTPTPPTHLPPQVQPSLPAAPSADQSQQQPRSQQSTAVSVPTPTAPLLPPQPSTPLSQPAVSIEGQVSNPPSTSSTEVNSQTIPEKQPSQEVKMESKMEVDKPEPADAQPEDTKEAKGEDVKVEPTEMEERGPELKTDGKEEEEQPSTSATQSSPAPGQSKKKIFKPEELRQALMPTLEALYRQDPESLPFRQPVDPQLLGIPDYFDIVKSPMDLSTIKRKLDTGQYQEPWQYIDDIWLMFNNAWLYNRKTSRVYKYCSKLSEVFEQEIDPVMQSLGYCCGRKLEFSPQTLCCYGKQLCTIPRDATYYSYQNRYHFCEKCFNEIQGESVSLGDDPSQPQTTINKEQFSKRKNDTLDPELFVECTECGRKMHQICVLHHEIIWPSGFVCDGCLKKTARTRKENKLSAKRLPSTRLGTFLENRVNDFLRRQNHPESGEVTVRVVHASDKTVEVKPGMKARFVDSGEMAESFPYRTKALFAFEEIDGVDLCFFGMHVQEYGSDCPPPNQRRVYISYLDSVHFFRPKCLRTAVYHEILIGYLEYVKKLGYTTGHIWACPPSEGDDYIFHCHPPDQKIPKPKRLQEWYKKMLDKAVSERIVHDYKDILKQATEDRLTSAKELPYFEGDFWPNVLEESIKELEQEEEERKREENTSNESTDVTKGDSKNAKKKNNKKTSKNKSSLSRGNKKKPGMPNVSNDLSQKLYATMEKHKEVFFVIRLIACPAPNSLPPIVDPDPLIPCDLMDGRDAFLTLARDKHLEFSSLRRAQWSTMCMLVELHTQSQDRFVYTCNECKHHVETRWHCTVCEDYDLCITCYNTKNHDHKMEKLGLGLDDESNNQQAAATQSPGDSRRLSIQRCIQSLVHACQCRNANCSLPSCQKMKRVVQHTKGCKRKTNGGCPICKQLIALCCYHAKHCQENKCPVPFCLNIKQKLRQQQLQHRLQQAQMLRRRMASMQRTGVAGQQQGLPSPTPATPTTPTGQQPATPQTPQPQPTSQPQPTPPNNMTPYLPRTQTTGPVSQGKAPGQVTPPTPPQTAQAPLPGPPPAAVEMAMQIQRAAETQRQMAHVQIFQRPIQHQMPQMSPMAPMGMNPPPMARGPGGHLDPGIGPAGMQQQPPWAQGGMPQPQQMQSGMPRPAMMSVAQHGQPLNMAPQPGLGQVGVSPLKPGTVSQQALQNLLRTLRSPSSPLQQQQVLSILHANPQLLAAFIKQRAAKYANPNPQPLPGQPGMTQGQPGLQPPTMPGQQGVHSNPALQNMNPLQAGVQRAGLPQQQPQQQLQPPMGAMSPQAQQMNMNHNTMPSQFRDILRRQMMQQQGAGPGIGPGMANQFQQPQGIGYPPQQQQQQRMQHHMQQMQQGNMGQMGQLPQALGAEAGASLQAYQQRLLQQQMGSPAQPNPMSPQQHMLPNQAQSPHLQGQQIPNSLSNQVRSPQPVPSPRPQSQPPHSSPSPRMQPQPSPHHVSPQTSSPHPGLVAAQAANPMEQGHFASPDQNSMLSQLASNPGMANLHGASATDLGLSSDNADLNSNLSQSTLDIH

SMILES: CC(C)=CCc1cc(C=CC(=O)O)cc(CC=C(C)C)c1O [APC, 3,5-diprenyl-4-hydroxycinnamic acid]
- association of CREB with P300 [1]: little effect
- interaction of CBP-KIX and CREB-KID domains (two-hybrid) [2]: little effect; also recorded: neither APC nor A57 reduced
- effect on luciferase enzymatic activity [3]: no effect
- liver TG normolized by protein [4, 5]: 86.3991 µM/mg and 171.894 µM/mg and 414.053 µM/mg and 275.641 µM/mg and 201.326 µM/mg
- liver TG normolized by protein, group mean ([4]; APC 10 mg/kg, n=5): 229.9
- plasma NEFA ([4]; APC 10 mg/kg, individual mice, Figure 5g): 1.19 mM (2×) and 1.033 mM and 1.294 mM and 1.373 mM
- plasma NEFA, Mean 2 (group mean) ([4]; APC 10mg/kg, n=5, Figure 5g): 1.216
- liver TG normolized by protein [4, 6]: 85.5962 µM/mg and 137.868 µM/mg and 107.422 µM/mg and 121.195 µM/mg and 111.821 µM/mg
- plasma NEFA ([4]; APC 20 mg/kg, individual mice, Figure 5g): 1.765 mM and 1.686 mM and 1.451 mM and 1.242 mM and 1.507 mM
- plasma NEFA, Mean 2 (group mean) ([4]; APC 20mg/kg, n=5, Figure 5g): 1.53
- liver glycerol/protein [4, 7]: 49.7505 nM/mg and 67.3705 nM/mg and 57.1365 nM/mg and 57.0635 nM/mg and 49.612 nM/mg
- hepatic NEFA [4, 7]: 39.07 mM/mg protein and 106.88 mM/mg protein and 150.80 mM/mg protein and 112.30 mM/mg protein and 101.67 mM/mg protein
- liver NEFA, Mean 2 (group mean) ([4]; APC-10mg/kg, n=5): 102.1
- liver glycerol/protein [4, 8]: 43.0466 nM/mg and 45.5622 nM/mg and 43.2605 nM/mg and 44.1634 nM/mg and 41.762 nM/mg
- hepatic NEFA [4, 8]: 39.34 mM/mg protein and 26.14 mM/mg protein and 65.42 mM/mg protein and 29.72 mM/mg protein and 45.95 mM/mg protein
- liver NEFA, Mean 2 (group mean) ([4]; APC-20mg/kg, n=5): 41.31
- NEFA and glycerol levels in the liver ([4]; DIO mice): reduced
- NEFA levels in the plasma ([4]; DIO mice): significantly enhanced
- TG in serum and liver; TC, LDL-C, HDL-C, VLDL-C in serum ([4]; DIO mice, i.p. daily 5 weeks): reduced
- Plasma total cholesterol, Mean Diff. vs. VEH ([4]; Figure 6h, CRTC2KO mice): 5.091 mg/dL
- Plasma total cholesterol, Mean 1 (drug group) ([4]; Figure 6h, CRTC2KO mice, group mean): 223.9 mg/dL
- TC in plasma_CRTC2KO (plasma total cholesterol) ([4]; Figure 6h, CRTC2KO mice, individual mice): 238.201 mg/dL and 210.746 mg/dL and 206.493 mg/dL and 224.280 mg/dL and 219.253 mg/dL and 244.388 mg/dL
- Plasma total cholesterol, Mean Diff. vs. VEH ([4]; Figure 6h, WT mice): -70.45 mg/dL
- Plasma total cholesterol, Mean 1 (drug group) ([4]; Figure 6h, WT mice, group mean): 208.1 mg/dL
- TC in plasma_WT (plasma total cholesterol) ([4]; Figure 6h, WT mice, individual mice): 239.748 mg/dL and 207.149 mg/dL and 201.100 mg/dL and 213.669 mg/dL and 202.239 mg/dL and 184.451 mg/dL
- Plasma HDLC, group mean [4, 9]: 108.7
- Plasma LDLC, group mean [4, 9]: 35.65
- Plasma TC, group mean [4, 9]: 159.1
- Plasma cholesterol fraction: HDL-C [4, 10]: 121.556 mg/dL and 100.915 mg/dL and 96.3277 mg/dL and 114.676 mg/dL and 110.089 mg/dL
- Plasma cholesterol fraction: TC [4, 10]: 183.52 mg/dL and 143.341 mg/dL and 133.376 mg/dL and 156.357 mg/dL and 178.886 mg/dL
- Plasma cholesterol fraction: lDL-C [4, 10]: 34.819 mg/dL and 32.859 mg/dL and 26.6884 mg/dL and 35.653 mg/dL and 48.218 mg/dL
- plasma VLDL-C in HF mice [4, 10]: 7.592 mM and 8.572 mM and 12.094 mM and 7.185 mM and 10.797 mM
- Plasma LDLC, group mean [4, 11]: 35.83
- Plasma TC, group mean [4, 11]: 149.8
- Plasma cholesterol fraction: HDL-C [4, 12]: 115.823 mg/dl and 123.85 mg/dl and 106.649 mg/dl (2×) and 111.236 mg/dl
- Plasma cholesterol fraction: TC [4, 12]: 171.677 mg/dL and 165.819 mg/dL and 163.116 mg/dL and 116.704 mg/dL and 131.574 mg/dL
- Plasma cholesterol fraction: lDL-C [4, 12]: 30.997 mg/dL and 43.001 mg/dL and 39.18 mg/dL and 41.345 mg/dL and 24.6089 mg/dL
- plasma VLDL-C in HF mice [4, 12]: 7.201 mM and 6.888 mM and 6.935 mM and 9.593 mM and 6.573 mM
- HF, plasma TG [4, 5]: 206.957 mg/dL and 266.745 mg/dL and 324.233 mg/dL and 312.736 mg/dL and 213.856 mg/dL and 276.893 mg/dL
- HF, plasma TG, group mean ([4]; APC 10 mg/kg): 266.9
- HF, plasma TG [4, 6]: 191.58 mg/dL and 265.587 mg/dL and 200.059 mg/dL and 301.238 mg/dL and 218.455 mg/dL and 257.547 mg/dL
- HF, plasma TG, group mean ([4]; APC 20 mg/kg): 239.1
- HF, plasma TG (Fast, TG) [4, 5]: 2.336 mM and 3.011 mM and 3.66 mM and 3.53 mM and 2.414 mM and 3.1252 mM
- HF, plasma TG (Fast, TG) [4, 6]: 2.1623 mM and 2.9976 mM and 2.258 mM and 3.4 mM and 2.466 mM and 2.907 mM
- plasma NEFA ([4]; WT lean mice ip APC, individual mice): 0.3625 mM and 0.9375 mM (2×) and 0.4375 mM (2×) and 0.3875 mM and 0.3375 mM
- Plasma HDL cholesterol (HDLC) in db/db mice [4, 13]: 102.090 mg/dL and 118.865 mg/dL and 74.315 mg/dL and 130.914 mg/dL and 101.419 mg/dL
- Plasma LDL cholesterol (LDLC) in db/db mice [4, 13]: 136.268 mg/dL and 110.602 mg/dL and 104.635 mg/dL and 153.302 mg/dL and 128.968 mg/dL
- Plasma total cholesterol (TC) in db/db mice [4, 13]: 321.58 mg/dL and 345.006 mg/dL and 255.56 mg/dL and 362.043 mg/dL and 310.931 mg/dL
- plasma TG in db/db mice [4, 13]: 326.962 mg/dL and 300.088 mg/dL and 273.215 mg/dL and 309.046 mg/dL and 418.497 mg/dL
- Plasma total cholesterol (TLC) in db/db mice, group mean ([4]; db/db mice, plasma, mean, N 5): 319 mg/dL
- Plasma VLDL cholesterol in db/db mice, group mean ([4]; db/db mice, plasma, mean, sample size 5): 14.3
- TC in liver_CRTC2KO, Mean Diff. VEH vs. drug ([4]; liver, CRTC2-KO mice, VEH minus drug): 4.338
- TG in liver_CT2KO, Mean Diff. vs. VEH ([4]; liver, CRTC2-KO mice, drug minus VEH): 1.019 mg/g protein
- TC in liver_CRTC2KO, mean ([4]; liver, CRTC2-KO mice, group mean (Mean 2), N=6): 47.01
- TG in liver_CT2KO, mean ([4]; liver, CRTC2-KO mice, group mean, N=6): 16.67 mg/g protein
- TG in liver_CT2KO ([4]; liver, CRTC2-KO mice, individual animals, Supp.fig.5c): 24.3792 mg/g protein and 12.893 mg/g protein and 18.4652 mg/g protein and 10.1068 mg/g protein and 21.2872 mg/g protein and 12.8898 mg/g protein
- TC in liver_CT2KO (total cholesterol in the liver of CRTC2-KO) ([4]; liver, CRTC2-KO mice, individual animals, Supp.fig.5d): 58.4768 and 29.5309 and 45.7311 and 42.1461 and 61.1694 and 45.0332
- TC in liver_WT, Mean Diff. VEH vs. drug ([4]; liver, WT mice, VEH minus drug): 14.77
- TG in liver_WT, Mean Diff. vs. VEH ([4]; liver, WT mice, drug minus VEH): -10.82 mg/g protein
- TC in liver_WT, mean ([4]; liver, WT mice, group mean (Mean 2), N=6): 45.59
- TG in liver_WT, mean ([4]; liver, WT mice, group mean, N=6): 9.137 mg/g protein
- TG in liver_WT ([4]; liver, WT mice, individual animals, Supp.fig.5c): 10.5445 mg/g protein and 8.1654 mg/g protein and 11.0077 mg/g protein and 10.5773 mg/g protein and 6.8582 mg/g protein and 7.67 mg/g protein
- TC in liver_WT (total cholesterol in the liver) ([4]; liver, WT mice, individual animals, Supp.fig.5d): 40.0962 and 49.3508 and 44.4273 and 45.043 and 48.2093 and 46.4302
- plasma and liver cholesterol, liver TG in Crtc2-KO mice ([4]; oral 20 mg/kg, 3 weeks): little effect
